Results as given in US12729377B2, “RNAi agents and compositions for inhibiting expression of angiopoietin-like 3 (ANGPTL3), and methods of use” (Arrowhead Pharmaceuticals, Inc., priority 2017, dated 2026).
In the oligonucleotide strings, read from the 5' end, every base follows the letter of its sugar. An asterisk marks phosphorothioate; unmarked linkages are phosphodiester. Other units and linkages are bracketed, terminal groups are in braces. A string of capitals states the bases alone. {NAG37} = tridentate N-acetyl-galactosamine targeting ligand, structure (NAG37)s; [invAb] = inverted abasic unit; m = 2'-O-methyl; f = 2'-fluoro

Key:
[1] = tested on: ANGPTL3 gene; experiment: Example 14: RNAi agent and statin, serum triglycerides in LDLR knockout mice; assay type: in vivo, LDLR KO mice
Source text: To evaluate the effect of co-administration of RNAi agents and statins in a disease model, LDLR KO mice were commercially obtained (The Jackson Laboratory). For three weeks prior to the onset of the study, forty-one (41) male 7 to 8 week old LDLR KO mice were placed on a high fat (“western”) diet (Teklad Custom Diets TD.88137), and remained on that diet throughout the duration of the study. Pre-dose serum samples were taken on study Day 1 after a four hour fast. The dosing regimen for the study is recited in the following Table 72:
• Mice were treated at 40 mg/kg for the first 11 days, then switched to 20 mg/kg thereafter.
The vehicle used for the oral gavage in the study was a 1:1 mixture of Ora-Plus®: Ora-Sweet® solution, which were acquired commercially. For the preparation of the atorvastatin oral gavage administrations, the respective desired dose of atorvastatin was first dissolved in sterile water (0.3 mL water per 1 mL of desired formulation) and vortexed until smooth, followed by the addition of a mixture of 1:1 Ora-Plus®: Ora-Sweet® solution (0.7 mL vehicle per 1 mL of desired formulation) and vortexed. On day 1 and for each day thereafter an oral gavage dose was administered for each of the Groups except for Group 2. On Day 23, Groups 1, 2, 3, and 4 received a single subcutaneous administration of 2.5 mg/kg dose ([…] solution) of an ANGPTL3 RNAi agent in D5W (dextrose in 5% water), or vehicle control (D5W) with no RNAi agent.
The RNAi agent tested (AD05488) included a modified sequence and an N-acetyl-galactosamine-containing targeting ligand conjugated to the 5′ terminal end of the sense strand. (See Tables 3, 4, and 5 for modified sequences and targeting ligand structures). The injections were performed between the skin and muscle (i.e. subcutaneous injections) into the loose skin over the neck and shoulder area. Serum was collected on days 8, 15, 22 (pre-RNAi agent injection), 29, 36, 43, and 50. LDLR KO mice were fasted for four hours prior to each collection.
ANGPTL3 protein levels in serum were measured by ELISA assay (R&D Systems), according to the manufacturer's recommendations. Among other biomarkers, triglycerides, total cholesterol, and low-density lipoprotein (LDL) in serum were measured on a Cobas® Integra 400 (Roche Diagnostics), according to the manufacturer's recommendations.
The ANGPTL3 protein levels, triglyceride levels, total cholesterol levels, HDL levels, and LDL levels for each animal were normalized. For normalization, respective levels of ANGPTL3 protein, TG, total cholesterol, or LDL for each animal at a time point was divided by the pre-treatment level of expression in that animal (in this case pre-dose levels on Day 1) to determine the ratio of expression “normalized to pre-treatment.” Data from the study set forth in this Example are shown in the following Tables 73-76: […]

[2] = tested on: ANGPTL3 gene; experiment: Example 11: dose response, serum triglycerides in mice; assay type: in vivo, C57bl/6 mice
Method: To assess the dose response of ANGPTL3 RNAi agent AD05488, six- to eight-week-old female C57bl/6 mice were used. Pre-dose serum samples were taken at day −1 after a four hour fast. At day 1, each mouse was given a single subcutaneous administration of 200 μl containing the respective mg/kg dose of an ANGPTL3 RNAi agent in D5W (dextrose in 5% water), or control (D5W) with no RNAi agent, according to the dosing groups recited in Table 53:
The RNAi agent tested (AD05488) included a modified sequence and an N-acetyl-galactosamine-containing targeting ligand conjugated to the 5′ terminal end of the sense strand. (See Tables 3, 4, and 5 for modified sequences and targeting ligand structures). The injections were performed between the skin and muscle (i.e. subcutaneous injections) into the loose skin over the neck and shoulder area. Four (4) mice in each group were tested (n=4). Serum was collected on days 8, 15, 22, and 29. Mice were fasted for four hours prior to each collection. ANGPTL3 protein levels in serum were measured by ELISA assay (R&D Systems), according to the manufacturer's recommendations. Triglycerides, total cholesterol, high-density lipoprotein (HDL), and low-density lipoprotein (LDL) in serum were measured on a Cobas® Integra 400 (Roche Diagnostics), according to the manufacturer's recommendations.
The ANGPTL3 protein levels, triglyceride levels, total cholesterol levels, HDL levels, and LDL levels for each animal were normalized. For normalization, the level of ANGPTL3 protein, triglyceride, HDL, and total cholesterol, respectively, for each animal at a time point, was divided by the pre-treatment level of expression in that animal (in this case at day −1) to determine the ratio of expression “normalized to pre-treatment.” Expression at a specific time point was then normalized to the D5W control group by dividing the “normalized to pre-treatment” ratio for an individual animal by the mean “normalized to pretreatment” ratio of all mice in the D5W control group.

For “AD05488: RNAi agent duplex: antisense AM07235-AS, sense AM07234-SS (antisense mU*fA*mC*fUmGfAmUfCmAfAmAfUmAfUmGfUmUfGmAfG*mC; sense {NAG37}*[invAb]*mGmCmUmCmAmAmCmAfUfAfUmUmUmGmAmUmCmAmGmUmA*[invAb])”, the “Avg TG normalized to pre-treatment” value ([1]; Group 2: no gavage, 2.5 mg/kg AD05488 SC on day 23, Day 8 (pre-RNAi agent injection)) was 0.988, the “Avg TG normalized to pre-treatment” value ([1]; Group 2: no gavage, 2.5 mg/kg AD05488 SC on day 23, Day 15 (pre-RNAi agent injection)) was 1.247 and the “Avg TG normalized to pre-treatment” value ([1]; Group 2: no gavage, 2.5 mg/kg AD05488 SC on day 23, Day 22 (pre-RNAi agent injection)) was 1.524. The “Avg TG normalized to pre-treatment” value ([1]; Group 2: no gavage, 2.5 mg/kg AD05488 SC on day 23, Day 29) was 0.166, the “Avg TG normalized to pre-treatment” value ([1]; Group 2: no gavage, 2.5 mg/kg AD05488 SC on day 23, Day 36) was 0.125 and the “Avg TG normalized to pre-treatment” value ([1]; Group 2: no gavage, 2.5 mg/kg AD05488 SC on day 23, Day 43) was 0.139. The “Avg TG normalized to pre-treatment” value ([1]; Group 2: no gavage, 2.5 mg/kg AD05488 SC on day 23, Day 50) was 0.153, the “Avg TG normalized to pre-treatment” value ([1]; Group 3: 10 mg/kg daily oral gavage atorvastatin, 2.5 mg/kg AD05488 on day 23, Day 8 (pre-RNAi agent injection)) was 0.613 and the “Avg TG normalized to pre-treatment” value ([1]; Group 3: 10 mg/kg daily oral gavage atorvastatin, 2.5 mg/kg AD05488 on day 23, Day 15 (pre-RNAi agent injection)) was 0.436. For the same substance, the “Avg TG normalized to pre-treatment” value ([1]; Group 3: 10 mg/kg daily oral gavage atorvastatin, 2.5 mg/kg AD05488 on day 23, Day 22 (pre-RNAi agent injection)) was 0.614, the “Avg TG normalized to pre-treatment” value ([1]; Group 3: 10 mg/kg daily oral gavage atorvastatin, 2.5 mg/kg AD05488 on day 23, Day 29) was 0.072 and the “Avg TG normalized to pre-treatment” value ([1]; Group 3: 10 mg/kg daily oral gavage atorvastatin, 2.5 mg/kg AD05488 on day 23, Day 36) was 0.058. For the same substance, the “Avg TG normalized to pre-treatment” value ([1]; Group 3: 10 mg/kg daily oral gavage atorvastatin, 2.5 mg/kg AD05488 on day 23, Day 43) was 0.076, the “Avg TG normalized to pre-treatment” value ([1]; Group 3: 10 mg/kg daily oral gavage atorvastatin, 2.5 mg/kg AD05488 on day 23, Day 50) was 0.065 and the “Avg TG normalized to pre-treatment” value ([1]; Group 4: 20 mg/kg* daily oral gavage atorvastatin (40 mg/kg first 11 days), 2.5 mg/kg AD05488 on day 23, Day 8 (pre-RNAi agent injection)) was 0.567. The “Avg TG normalized to pre-treatment” value ([1]; Group 4: 20 mg/kg* daily oral gavage atorvastatin (40 mg/kg first 11 days), 2.5 mg/kg AD05488 on day 23, Day 15 (pre-RNAi agent injection)) was 0.526, the “Avg TG normalized to pre-treatment” value ([1]; Group 4: 20 mg/kg* daily oral gavage atorvastatin (40 mg/kg first 11 days), 2.5 mg/kg AD05488 on day 23, Day 22 (pre-RNAi agent injection)) was 0.748 and the “Avg TG normalized to pre-treatment” value ([1]; Group 4: 20 mg/kg* daily oral gavage atorvastatin (40 mg/kg first 11 days), 2.5 mg/kg AD05488 on day 23, Day 29) was 0.071. For the same substance, the “Avg TG normalized to pre-treatment” value ([1]; Group 4: 20 mg/kg* daily oral gavage atorvastatin (40 mg/kg first 11 days), 2.5 mg/kg AD05488 on day 23, Day 36) was 0.058, the “Avg TG normalized to pre-treatment” value ([1]; Group 4: 20 mg/kg* daily oral gavage atorvastatin (40 mg/kg first 11 days), 2.5 mg/kg AD05488 on day 23, Day 43) was 0.089 and the “Avg TG normalized to pre-treatment” value ([1]; Group 4: 20 mg/kg* daily oral gavage atorvastatin (40 mg/kg first 11 days), 2.5 mg/kg AD05488 on day 23, Day 50) was 0.082. For the same substance, the “effects on lipid parameters” value ([1]; co-administration of atorvastatin (Groups 3 and 4), LDLR KO mice on high fat diet) was “additive effects”, the “total reductions in triglycerides” value ([1]; co-administration of atorvastatin and RNAi agent (Groups 3 and 4), LDLR KO mice on high fat diet) was ~ 95% and the “Avg TG (Triglycerides) Normalized to Pre-Treatment and Control” value (“Avg TG (Triglycerides) Normalized” below) ([2]; 0.05 mg/kg single sc day 1, Day 8) was 1.296. The “Avg TG (Triglycerides) Normalized” value ([2]; 0.05 mg/kg single sc day 1, Day 15) was 1.274, the “Avg TG (Triglycerides) Normalized” value ([2]; 0.05 mg/kg single sc day 1, Day 22) was 1.202 and the “Avg TG (Triglycerides) Normalized” value ([2]; 0.05 mg/kg single sc day 1, Day 29) was 1.999. For the same substance, the “Avg TG (Triglycerides) Normalized” value ([2]; 0.1 mg/kg single sc day 1, Day 8) was 1.116, the “Avg TG (Triglycerides) Normalized” value ([2]; 0.1 mg/kg single sc day 1, Day 15) was 1.141 and the “Avg TG (Triglycerides) Normalized” value ([2]; 0.1 mg/kg single sc day 1, Day 22) was 1.234. The “Avg TG (Triglycerides) Normalized” value ([2]; 0.1 mg/kg single sc day 1, Day 29) was 1.798, the “Avg TG (Triglycerides) Normalized” value ([2]; 0.5 mg/kg single sc day 1, Day 8) was 1.028 and the “Avg TG (Triglycerides) Normalized” value ([2]; 0.5 mg/kg single sc day 1, Day 15) was 1.027. The “Avg TG (Triglycerides) Normalized” value ([2]; 0.5 mg/kg single sc day 1, Day 22) was 0.864, the “Avg TG (Triglycerides) Normalized” value ([2]; 0.5 mg/kg single sc day 1, Day 29) was 1.855 and the “Avg TG (Triglycerides) Normalized” value ([2]; 1.0 mg/kg single sc day 1, Day 8) was 0.860. For the same substance, the “Avg TG (Triglycerides) Normalized” value ([2]; 1.0 mg/kg single sc day 1, Day 15) was 0.755, the “Avg TG (Triglycerides) Normalized” value ([2]; 1.0 mg/kg single sc day 1, Day 22) was 0.720 and the “Avg TG (Triglycerides) Normalized” value ([2]; 1.0 mg/kg single sc day 1, Day 29) was 1.254. The “Avg TG (Triglycerides) Normalized” value ([2]; 2.5 mg/kg single sc day 1, Day 8) was 0.623, the “Avg TG (Triglycerides) Normalized” value ([2]; 2.5 mg/kg single sc day 1, Day 15) was 0.556 and the “Avg TG (Triglycerides) Normalized” value ([2]; 2.5 mg/kg single sc day 1, Day 22) was 0.447. The “Avg TG (Triglycerides) Normalized” value ([2]; 2.5 mg/kg single sc day 1, Day 29) was 0.772, the “Avg TG (Triglycerides) Normalized” value ([2]; 5.0 mg/kg single sc day 1, Day 8) was 0.923 and the “Avg TG (Triglycerides) Normalized” value ([2]; 5.0 mg/kg single sc day 1, Day 15) was 0.892. For the same substance, the “Avg TG (Triglycerides) Normalized” value ([2]; 5.0 mg/kg single sc day 1, Day 22) was 0.781 and the “Avg TG (Triglycerides) Normalized” value ([2]; 5.0 mg/kg single sc day 1, Day 29) was 1.128.
